Patent US5296491A, “Pyrazolo[4,3-c]pyridines and their use as serotonin reuptake inhibitors” (Hoechst-Roussel Pharmaceuticals Inc., priority 1993, dated 1994)
Structures can show the parent of a compound that is named as a salt.

Test system: serotonin (5-hydroxytryptamine (5HT)) uptake
Experiment: [^3 H]-Serotonin Uptake in Rat Whole Brain and Hypothalamic Synaptosomes
Assay type: biochemical, rat (male Wistar)
Settings: [^3 H]-5HT 50 nM, 5 minutes, 37° C., log probit analysis
Experimental: [^3 H]-Serotonin Uptake in Rat Whole Brain and Hypothalamic Synaptosomes
This activity is determined in an assay which measures [^3 H]-serotoninuptake in rat whole brain and hypothalamic synaptosomes. The assay described below is used as a biochemical screen for potential antidepressants which block serotonin (5-hydroxytryptamine (5HT)) uptake.
Male CR Wistar rats (100-125 g)
1. Krebs-Henseleit Bicarbonate Buffer, pH 7.4 (KHBB):
Prepare a 1 liter batch containing the following salts.
Prior to use add to 200 ml, per assay:
The batch is aerated for 60 minutes with 95% 02 /5% CO2, the pH is checked to insure it is at 7.4±0.1, then add bovine serum albumin (Sigma cat# A-7906) 1 mg/ml.
Make a 4 liter batch, containing the following salts:
3. Sucrose solution: 0.32M sucrose containing 5 mM HEPES and 0.1 mM EDTA; pH to 7.3 using Tris base.
4. A 0.1 mM stock solution of serotonin creatinine SO4 is made up in 0.01N HCl. This is used to dilute the specific activity of the radiolabeled 5HT.
5. 5-[1,2-^3 H(N)]-Hydroxytryptamine creatinine sulfate (serotonin), specific activity 20-30 Ci/mmol, is used.
The final desired concentration of [^3 H]-5HT in the assay is 50 nM. The dilution factor is 0.8. The KHBB is made up to contain 62.5 nM of [^3 H]-5HT.
6. For most assays, a 0.5 mM stock solution of the test compound is made up initially in either 10 μl of glacial acetic acid, 100 μl DMSO or 10 μl of the recrystallization solvent, to which is added approximately 10 ml of distilled water. Compounds are initially screened in duplicate at 3 concentrations (10^-8, 10^-7 and 10^-6 M) made up in water.
The Percoll method for preparing synaptosomes has been modified from Nagy, A., Delgado-Escueta, A. V. J. Neurochem. 43, 1114 (1984) and Dunkley, P. R., Jarvie, R. E., Heath, J. W., Kidd, G. J., Rostas, J. A. P. Brain Research 372, 115 (1986). Male Wistar rats are decapitated and the brain rapidly removed. Whole brain (minus cerebellum) is weighed and homogenized in 15 volumes of ice cold Sucrose solution using a Potter-Elvejhem homogenizer. The following procedures are performed on ice. Homogenization should be done with 4-5 up and down strokes at medium speeds (setting 4.5 to 5) to minimize synaptosome lysis. The homogenate is centrifuged at 1000 g (3000 rpm, Sorvall SS-34 rotor) for 10 minutes at 0°-4° C. The supernatant is removed and approximately 10 ml per tube is carefully layered onto a discontinuous Percoll (Sigma cat# P-1644) gradient: 21% Percoll in Sucrose solution at the bottom (15 ml per tube) and 10% Percoll in the middle ( 10 ml; colored with a few drops of phenol red for visibility).
The Percoll gradient tubes are carefully placed into a Beckman SW-28 swinging bucket rotor and spun in a Beckman XL90 ultracentrifuge using the following program: speed, 11,000 rpm (15,000 g) for 30 minutes at 4° C.; slow acceleration and deceleration (acceleration setting 9; deceleration setting 3). Tubes are carefully removed, and the top layer and the top part of the middle (red) layer are discarded using a pasteur pipette. The synaptosomes are located in the white fluffy band at the interface between the 10% and 21% Percoll layers. This is carefully removed, placed in a centriguge tube, diluted with KHBB and spun at 21,000 g (13,000 rpm, Sorvall SS-34 rotor). The pellet (synaptosomes) is resuspended in KHBB (10 vol per gram original brain wet weight; 1 brain minus cerebellum weighs approximately 1.2 g; 2.5 brains are needed per typical assay).
200 μl of the tissue suspension are added to each of 24 tubes (at a time) containing the 20 μl of vehicle or drug on ice. Three minutes later, 800 μl of KHBB containing [^3 H]-5HT are added, and the tubes are vortexed. The rack containing the 24 tubes is moved from the ice bath to a water bath set at 37° C. The tubes are incubated for 5 minutes under 95% O2 /5% CO2.

NCCn1nc(-c2ccc(Br)cc2)c2cnccc21 [Example 2H, 1-(2-aminoethyl)-3-(4-bromophenyl)-1H-pyrazolo[4,3-c]pyridine] and NCCn1nc(-c2ccc(C(F)(F)F)cc2)c2cnccc21 [Example 2Q, 1-(2-aminoethyl)-3-(4-trifluoromethylphenyl)-1H-pyrazolo[4,3-c]pyridine maleate] are within 1.5-fold of each other in IC50: 940 nM for the first, 1240 nM for the second.

Compared with NCCCn1nc(-c2ccc(Cl)cc2)c2cnccc21 [Example 2D, 1-[3-aminopropyl]-3-(4-chlorophenyl)-1H-pyrazolo[4,3-c]pyridine dimaleate], NCCCn1nc(-c2ccc(Cl)c(Cl)c2)c2cnccc21 [Example 2K, 1-(3-aminopropyl)-3-3,4-dichlorophenyl)-1H-pyrazolo[4,3-c]pyridine maleate] is 3.2-fold lower in IC50: 770 nM for the first, 240 nM for the second.

First: NCCCn1nc(-c2cccc(Cl)c2Cl)c2cnccc21 [Example 2DD, 1-(3-aminopropyl)-3-(2,3-dichlorophenyl)-1H-pyrazolo[4,3-c]pyridine fumarate]
Second: NCCn1nc(-c2cccc(Cl)c2Cl)c2cnccc21 [Example 2CC, 1-(2-aminoethyl)-3-(2,3-dichlorophenyl)-1H-pyrazolo[4,3-c]pyridine fumarate]
The IC50 of the first is 2-fold higher: 410 nM for the first, 210 nM for the second.

First: NCCn1nc(-c2ccccc2Br)c2cnccc21 [Example 2A, 1-(2-aminoethyl)-3-(2-bromophenyl)-1H-pyrazolo[4,3-c]pyridine dihydrochloride]
Second: Cc1ccccc1-c1nn(CCN)c2ccncc12 [1-(2-aminoethyl)-3-(2-methylphenyl)-1H-pyrazolo[4,3-c]pyridine]
The IC50 of the first is 1.8-fold higher: 1530 nM for the first, 870 nM for the second.

First: NCCn1nc(-c2ccc(Cl)cc2Cl)c2cnccc21 [Example 2S, 1-(2-amimoethyl)-3-(2,4-dichlorophenyl)-1H-pyrazolo[4,3-c]pyridine fumarate]
Second: NCCCCn1nc(-c2ccc(Cl)cc2Cl)c2cnccc21 [1-(4-aminobutyl)-3-(2,4-dichlorophenyl)-1H-pyrazolo[4,3-c]pyridine dimaleate]
The IC50 of the first is 1.6-fold lower: 58 nM for the first, 95 nM for the second. The first is the more potent here.

Compared with NCCCn1nc(-c2ccc(Cl)c(Cl)c2Cl)c2cnccc21 [Example 2FF, 1-(3-aminopropyl)-3-(2,3,4-trichlorophenyl)-1H-pyrazolo[4,3-c]pyridine fumarate], NCCn1nc(-c2ccc(Cl)c(Cl)c2Cl)c2cnccc21 [Example 2EE, 1-(2-aminoethyl)-3-(2,3,4-trichlorophenyl)-1H-pyrazolo[4,3-c]pyridine fumarate] is 2.1-fold higher in IC50: 23 nM for the first, 49 nM for the second. The first is the more potent here.

NCCn1nc(-c2ccc(Cl)c(Cl)c2)c2cnccc21 [Example 2L, 1-(2-aminoethyl)-3-(3,4-dichlorophenyl)-1H-pyrazolo[4,3-c]pyridine maleate] showed an IC50 of 210 nM.
